One block for each molecule: values may come before it. Activity calls are given as the source filed them.
Experiments:
[1] = HIV-1 Vif–A3G interaction blockers – biochemical, TR-FRET, GST-Vif 1-94, biotin-A3G peptide, dose response retest, primary screen (AID 1117319); type: functional;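 further: TR-FRET signal of purified GST-Vif binding a biotinylated A3G peptide; inhibitors lower the FRET signal by blocking Vif and A3G binding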
Coagulation factor XII = target: T1, Coagulation factor XII (Homo sapiens, UniProt P00748); type: functional;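 further: activated factor XIIa alpha cleaving a fluorogenic AMC peptide substrate; inhibitor potency from loss of enzyme activity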
T1 sequence (P00748 whole entry): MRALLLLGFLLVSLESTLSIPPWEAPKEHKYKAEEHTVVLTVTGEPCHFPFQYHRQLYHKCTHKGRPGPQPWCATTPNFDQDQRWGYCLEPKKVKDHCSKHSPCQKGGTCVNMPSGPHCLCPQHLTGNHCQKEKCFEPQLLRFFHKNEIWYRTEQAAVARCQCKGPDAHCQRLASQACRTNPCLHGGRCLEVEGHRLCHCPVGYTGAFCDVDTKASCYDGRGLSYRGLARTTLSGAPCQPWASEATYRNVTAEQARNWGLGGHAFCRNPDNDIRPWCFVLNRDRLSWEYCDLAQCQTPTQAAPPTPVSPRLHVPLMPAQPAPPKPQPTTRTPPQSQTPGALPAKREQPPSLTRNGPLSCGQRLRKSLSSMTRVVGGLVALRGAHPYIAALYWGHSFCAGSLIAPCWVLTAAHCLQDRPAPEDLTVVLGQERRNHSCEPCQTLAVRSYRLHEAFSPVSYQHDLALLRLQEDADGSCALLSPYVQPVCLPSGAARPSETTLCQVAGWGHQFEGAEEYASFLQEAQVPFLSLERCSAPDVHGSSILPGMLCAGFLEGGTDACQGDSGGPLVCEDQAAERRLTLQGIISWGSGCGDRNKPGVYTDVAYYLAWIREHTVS

Cytochrome P450 2C19 = Cytochrome P450 2C19 (Homo sapiens, UniProt P33261); experiment: Cytochrome panel assay with activity outcomes. Panel member name: p450-cyp2c19 Compounds with AC50 equal or less than 10 uM are considered active; type: functional; details: read-out: AC50
Cytochrome P450 1A2 = target: T2, Cytochrome P450 1A2 (Homo sapiens, UniProt P05177);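 further: PubChem cytochrome P450 panel assay, CYP1A2 panel member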
T2 sequence (P05177 whole entry): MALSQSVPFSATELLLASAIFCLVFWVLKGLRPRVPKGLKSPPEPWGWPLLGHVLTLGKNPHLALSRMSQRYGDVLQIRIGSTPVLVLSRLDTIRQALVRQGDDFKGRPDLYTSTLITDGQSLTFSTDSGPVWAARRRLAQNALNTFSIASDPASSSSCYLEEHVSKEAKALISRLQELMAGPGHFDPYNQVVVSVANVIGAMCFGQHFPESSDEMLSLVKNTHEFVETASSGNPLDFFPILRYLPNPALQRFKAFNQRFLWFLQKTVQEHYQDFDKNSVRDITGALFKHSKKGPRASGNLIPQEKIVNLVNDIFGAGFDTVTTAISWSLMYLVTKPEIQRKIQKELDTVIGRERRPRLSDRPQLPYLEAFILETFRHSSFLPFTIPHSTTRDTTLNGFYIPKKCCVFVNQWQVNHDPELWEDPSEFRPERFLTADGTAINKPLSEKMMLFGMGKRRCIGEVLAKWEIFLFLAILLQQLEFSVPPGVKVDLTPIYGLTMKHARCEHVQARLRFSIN

[2] = IC50 of Artemis nuclease activity blockers – biochemical, fluorescence intensity, dose response (AID 720701); type: functional;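 further: Artemis endonuclease enzyme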
[3] = A549 cell cytotoxicity, dose response, cytotoxicity control, plate reader, cherry-pick, antagonist series (AID 743412); type: functional, cell-based
[4] = blockade of melanocortin 4 receptor signaling – cell-based, plate reader, cherry pick, counter-screen for LGR2 antagonist project, dose response (AID 743444); type: functional;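 further: transfected HEK 293 cells stimulated with alpha-MSH peptide; potency of inhibitors of the alpha-MSH evoked signal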
[5] = toxicity toward HepG2 liver cells – cell-based, plate reader, cherry-pick, antagonist series, cytotoxicity control, dose response (AID 743416); type: functional
[6] = viability loss in HEK293 cells – cell-based, plate reader, cherry-picked samples, cytotoxicity control, dose response (AID 743446); type: functional
H9c2 = experiment: cells; type: functional, cell-based; details: Rattus norvegicus, H9c2, Myocardium;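 further: confirmatory concentration-response retest of ultra-high-throughput screening hits for modulation of myocardial damage; cell death induced by hydrogen peroxide oxidative stress; compound pretreatment for 60 min then peroxide exposure for 2 h; potency is for protecting the cells against peroxide damage rather than for killing them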
[7] = reduced cellular PGC1a acetyl-lysine signal – cell-based, cherry-picked samples, dose response (AID 720514); type: functional;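 further: potency may reflect raised or lowered acetylation signal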
[8] = Dd2 malaria parasite growth inhibition potency – SYBR Green, dry powder samples, dose response (AID 1159566); type: functional, cell-based;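 further: potency for growth inhibition with lower SYBR green DNA signal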
[9] = growth inhibition of yeast DHODH-expressing 3D7 parasites – SYBR Green, dry powder samples, dose response (AID 1159570); type: functional, cell-based;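 further: parasite growth measured after 72 hours of compound exposure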
[10] = P. falciparum Dd2 growth inhibitors, dose response, SYBR Green, cherry-picked samples (AID 1159567); type: functional, cell-based
[11] = growth inhibition of PfATP4-mutant resistant parasites – NITD609-resistant line, SYBR Green, dry powder, dose response (AID 1159571); type: functional, cell-based;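 further: parasites synchronized at ring stage by sorbitol before testing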
[12] = toxicity to human hepatoma HepG2 cells – cell-based, cherry-picked samples, cytotoxicity control, dose response (AID 1159577); type: functional

Cytochrome P450 2C19, sequence (P33261 whole entry): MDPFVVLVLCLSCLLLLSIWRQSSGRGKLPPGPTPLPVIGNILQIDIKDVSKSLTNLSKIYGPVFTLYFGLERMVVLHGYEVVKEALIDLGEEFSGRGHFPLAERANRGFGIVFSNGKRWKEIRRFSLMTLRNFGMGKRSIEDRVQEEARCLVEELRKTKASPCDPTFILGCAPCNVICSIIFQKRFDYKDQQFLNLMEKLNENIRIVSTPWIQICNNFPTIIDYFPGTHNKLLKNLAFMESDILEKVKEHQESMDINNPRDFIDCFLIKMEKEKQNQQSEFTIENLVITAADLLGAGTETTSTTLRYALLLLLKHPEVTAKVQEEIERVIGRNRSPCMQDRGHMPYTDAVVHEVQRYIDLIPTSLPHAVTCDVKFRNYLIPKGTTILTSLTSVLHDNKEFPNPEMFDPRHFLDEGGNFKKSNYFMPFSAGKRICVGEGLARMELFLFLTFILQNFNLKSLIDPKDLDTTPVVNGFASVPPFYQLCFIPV

IC50 [1]: > 100 µM (active)
IC50 (Coagulation factor XII): > 50 µM (inactive)
Compound: O=C1CN(C(=O)COC(=O)c2oc3ccccc3c2COc2ccccc2)c2ccccc2N1

AC50 (Cytochrome P450 2C19): 1.12 µM (inconclusive)
AC50 (Cytochrome P450 1A2): 3.55 µM (inconclusive)
IC50 [2]: > 20 µM (inactive)
Compound: O=C(N/N=C\c1ccc(-c2ccccc2[N+](=O)[O-])o1)C1COc2cc3ccccc3cc2O1 (configuration not stated)

Compound: C[C@@H]1CN([C@H](C)CO)C(=O)Cc2cc(NC(=O)Nc3ccc(F)cc3)ccc2O[C@@H]1CN(C)CC1CCCCC1
AC50 [3]: 15 µM (active)
AC50 [4]: 56.6 µM (active)
AC50 [5]: 14.6 µM (active)
AC50 [6]: 16.2 µM (active)

Compound: Cc1nc(NC(=O)c2cc3c(C)nn(-c4ccccc4)c3s2)sc1C(=O)Nc1ccccc1
IC50 (H9c2): > 79 µM (inactive)
IC50 [2]: 1.22 µM (active)

IC50 [1]: > 100 µM (active)
Compound: CC(OC(=O)/C=C/c1ccco1)C(=O)NC1CCCCC1 (configuration not stated)

Compound: C[C@H]1CN([C@@H](C)CO)S(=O)(=O)c2ccc(C#CC3CCCCC3)cc2O[C@@H]1CN(C)Cc1cccnc1
AC50 [7]: 10.4 µM (active)

Compound: COc1ccc(NC(=O)N(C)C[C@@H]2Oc3c(NC(=O)c4nc5ccccc5s4)cccc3C(=O)N([C@@H](C)CO)C[C@H]2C)cc1
AC50 [8]: 1.3 µM (active)
AC50 [9]: 0.499 µM (active)
AC50 [10]: 1.96 µM (active)
AC50 [11]: 0.606 µM (active)
AC50 [12]: > 39 µM (inactive)

Compound: COc1ccc2c3c(n(C)c2c1)[C@@H](CO)N(C(=O)C1CCC1)CC31CN(C(=O)Nc2cccc(F)c2)C1
AC50 [8]: 0.779 µM (active)
AC50 [9]: 0.515 µM (active)
AC50 [10]: 2.35 µM (active)
AC50 [11]: 0.535 µM (active)
